Assay results: patent US4200578A, “Thiazole derivatives” (Bristol-Myers Company, priority 1978, dated 1980)
Where two headings read alike, the source gives them in different places.

Columns and labels:
[1] = molecular target: T1, histamine H2-receptor (isolated guinea pig right atria) (Cavia porcellus, UniProt P47747); assay: Histamine H2-receptor antagonism, isolated guinea pig right atria assay; settings: for Histamine ED50 with 95% confidence limits, after test compound: ED50 of histamine in presence of test compound 3 × 10^-5 M, 30 minute incubation, N = 8 (cimetidine), 2 (BL-6040, BL-6044); for potency as histamine H2-receptor antagonist compared with cimetidine: isolated guinea pig atria (in vitro); for Concentration-Response Curve Displacement Factor: test compound 3 × 10^-5 M
T1 construct: The spontaneously beating right atrium was dissected free from other tissues; from tissue; host or cells: spontaneously beating right atrium of male Hartley strain guinea pigs
Protocol: The present comparative studies were carried out using a modification of the procedure reported by Reinhardt et al., Agents and Actions, 4, 217 (1974).
Male Hartley strain guinea pigs (350-450 gm.) were sacrificed by a blow on the head. The heart was excised and placed in a Petri dish of oxygenated (95% O2, 5% CO2) modified Krebs solution (g./liter: NaCl 6.6, KCl 0.35, MgSO4.7 H2 O 0.295, KH2 PO4 0.162, CaCl2 0.238, NaHCO3 2.1 and dextrose 2.09). The spontaneously beating right atrium was dissected free from other tissues and a silk thread (4-0) attached to each end. The atrium was suspended in a 20 ml. muscle chamber containing oxygenated modified Krebs solution maintained at 32° C. Atrial contractions were recorded isometrically by means of a Grass FT 0.03 force displacement transducer and recordings of contractile force and rate were made with Beckman RP Dynograph.
A resting tension of 1 g. was applied to the atrium and it was allowed to equilibrate for 1 hour.
Concentration-response curve displacement factors were calculated as follows: [formula] The factors obtained for BL-6040 and BL-6044 were then expressed as ratios of the factor obtained for cimetidine. [formula]

gastric acid output = assay: Gastric antisecretory activity in the two hour pylorus ligated (Shay) rat; type: in vivo, rat (male Long Evans); settings: for ED50: Rattus norvegicus, 2 h; for ED50 / Percent Inhibition Acid Output / Potency Ratio: ip; for potency as inhibitor of gastric acid secretion compared with cimetidine: rats (in vivo); for Potency Ratio: relative to cimetidine (1.0)
Excerpt: Determination of Gastric Antisecretory Activity in the Two Hour Pylorus Ligated (Shay) Rat
The pyloric ligation procedure in the rat was designed by Shay et al., Gastroenterology, 5, 53 (1945) for the study of perforating gastric ulcers; however, as the method became known, it was also employed as a means of studing rat gastric secretion, Shay et al., Gastroenterology, 26, 906 (1954), Brodie, D. A., Am. J. Dig. Dis., 11, 231 (1966). A modification of this procedure is presently used to evaluate compounds for gastric antisecretory activity.
Male Long Evans rats, 280-300 gm., are used. The animals are placed in individual cages and fasted for 24 hours with free access to water. Under ether anesthesia, the stomach is reached through a midline incision, and a cotton-thread ligature is placed around the pylorus. After wound closure, ether administration is stopped and either cimetidine, BL-6040, BL-6044 or vehicle is administered intraperitoneally in a volume of […]. All compounds are solubilized with one equivalent of HCl and brought to the proper volume with water. The animals are returned to their cages from which the water bottles have been removed and two hours later are sacrificed with ether. The stomach is removed and the two hour gastric collection is drained into a graduated test tube for volume determination. Titratable acidity is measured by titrating a one ml. sample to pH 7.0 with 0.02 NaOH, using an Autoburet and electrometric pH meter (Radiometer). Titratable acid output is calculated in microequivalents by mutiplying the volume in milliliters by the acid concentration in milliequivalents per liter. The percent inhibition of acid output is calculated as follows [formula]

histamine H2-receptor = settings: cited from earlier work
[2] = cited from earlier work
[3] = in vivo; cited from earlier work
gastric secretion = settings: animals and man; cited from earlier work
peptic ulcer disease = settings: clinical evaluation; cited from earlier work
[4] = inhibition of gastric acid output, two hours, read-out: ED50
[5] = inhibition of gastric acid output

T1 sequence (P47747 whole entry): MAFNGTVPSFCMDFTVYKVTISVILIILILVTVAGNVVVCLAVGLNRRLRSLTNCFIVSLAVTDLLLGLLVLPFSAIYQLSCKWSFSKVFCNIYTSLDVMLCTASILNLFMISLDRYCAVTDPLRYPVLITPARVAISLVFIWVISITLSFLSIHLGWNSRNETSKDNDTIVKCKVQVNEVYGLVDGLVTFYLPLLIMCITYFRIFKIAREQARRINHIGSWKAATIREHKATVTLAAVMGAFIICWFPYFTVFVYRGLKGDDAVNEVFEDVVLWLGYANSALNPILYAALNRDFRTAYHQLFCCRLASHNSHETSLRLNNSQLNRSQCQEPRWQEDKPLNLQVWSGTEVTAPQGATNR

SMILES | Histamine ED50 with 95% confidence limits, after test compound [1] [µg/mL] | potency as histamine H2-receptor antagonist compared with cimetidine [1] | Concentration-Response Curve Displacement Factor [1] | ED50 (gastric acid output; [4]) [µmol/kg] | Percent Inhibition Acid Output (gastric acid output; 5 μMole/kg, two hours) [%] | Percent Inhibition Acid Output (gastric acid output; 10 μMole/kg, two hours) [%] | Percent Inhibition Acid Output (gastric acid output; 20 μMole/kg, two hours) [%] | potency as inhibitor of gastric acid secretion compared with cimetidine (gastric acid output) | Potency Ratio (gastric acid output; [5]) | H2-receptor antagonism (histamine H2-receptor) | oral activity ([2]; man) | toxicity (agranulocytosis) [3] | inhibition of gastric secretion (gastric secretion) | oral absorption ([2]; in vivo, po) | ED50 (gastric acid output) [µmol/kg] | half-life ([2]; in vivo) | efficacy in the treatment of peptic ulcer disease (peptic ulcer disease)
C#CCNC(=C[N+](=O)[O-])NCCSCc1nccs1 [BL-6040, 1-Nitro-2-(2-propynylamino)-2-{2-[(thiazol-2-yl)methylthio]ethylamino}ethylene] | 20.79 | more potent than cimetidine | 46.20 | 4.11 | 53 | 69 | 80 | more potent than cimetidine | 2.93 | – | – | – | – | – | – | – | –
C/N=C(\S)NCCSCc1[nH]cnc1C [Metiamide] | – | – | – | – | – | – | – | – | – | more potent than burimamide | orally active in man | toxicity (agranulocytosis) | – | – | – | – | –
C#CCNC(=NCCSCc1nccs1)NC#N [BL-6044, N-Cyano-N'-(2-propyn-1-yl)-N"-{2-[(thiazol-2-yl)methylthio]ethyl}guanidine] | 14.25 | more potent than cimetidine | 43.18 | 5.73 | 52 | 58 | 73 | more potent than cimetidine | 2.11 | – | – | – | – | – | – | – | –
CNC(=S)NCCCCc1cnc[nH]1 [Burimamide] | – | – | – | – | – | – | – | – | – | a competitive antagonist of these receptors | – | – | inhibits gastric secretion in animals and man | poor | – | – | –
CN/C(=N/CCSCc1nc[nH]c1C)NC#N [Cimetidine, reference compound] | 4.80 | – | 25.26 | – | 26 | 45 | 76 | – | – | as effective an H2 antagonist as metiamide | – | without producing agranulocytosis | – | – | 12.1 | relatively short | effective therapeutic agent in the treatment of peptic ulcer disease
